# Key:
# [1] = system: p68 RNA helicase; assay: Expression level of mRNA of p68 RNA helicase during differentiation of 3T3L1 cell into fat cell (real-time PCR); assay type: cell-based; conditions: 3T3L1 cell in differentiation culture medium; pioglitazone final concentration 1 μM; 24 hours after addition; corrected on G3PDH expression
# Protocol: To a culture plate (60-mm diameter; Asahi Technoglass), 2 ml of the minimum essential culture medium of DMEM (Gibco) supplemented with 10% fetal bovine serum (Sigma) was added and a culture cell 3T3L1 cell was cultured therein to become confluence. Subsequently, the culture medium was replaced with a differentiation culture medium [the minimum essential culture medium DMEM (Gibco) supplemented with insulin (at a final concentration of 10 μg/ml; Sigma), dexamethazone (at a final concentration of […]; Sigma) and 3-isobutyl-1-[…] (at a final concentration of […]; Sigma)], to which pioglitazone (at a final concentration of 1 μM) as an agent for improving insulin resistance was added or was not added. Then, it was examined as to whether or not the expression level of p68 RNA helicase changed between the culture medium with or without adding pioglitazone. 24 hours after pioglitazone addition, the cell was harvested, to extract RNA using an RNA extraction reagent (ISOGEN; Wako Pure Chemical Co., Ltd.) for reverse transcription with a reverse transcription reaction kit (Thermoscript RT-PCR System; Invitrogen). […]
# [2] = system: promoter region of p68 RNA helicase gene; assay: Promoter activity of p68 RNA helicase gene, luciferase reporter assay in COS-1 cells; assay type: cell-based, monkey; conditions: COS-1 cells co-transfected with pGL3-p68-899 bp or pGL3-p68-1184 bp; pioglitazone final concentration 10 μM; 24 hours; corrected by β-galactosidase activity; FIG. 2
# Protocol: The culture medium was discarded and the cell was washed with phosphate buffered saline(PBS). Per each well, 80 μl each of lysis solution (100 mM potassium phosphate, pH 7.8, 0.2% Triton X-100) was added, for cell lysis. To 20 μl of the cytolytic solution, 100 μl of a luciferase substrate solution (Wako Pure Chemical Co., Ltd.) was added to assay the luminescence with a chemiluminescence meter (Type ML3000; Dynatech Laboratories). Separately, the β-galactosidase activity of the cytolytic solution was assayed with a kit for detecting the β-galactosidase activity (Galacto-Light Plus™ system; TROPIX), and the resulting value was digitized. This was used as the transfection efficiency of introduced gene, to correct the said luciferase activity per each well. Using primers represented by SEQ ID NOS:14 and 15 designed on the basis of the nucleotide sequence of the promoter of p68 RNA helicase gene as previously reported (Rossler, et al., Nucleic Acids Res., Vol. 28, pp. 932-939, 2000) and the human genome DNA sequence (GenBank accession No. AC009994) and additionally using the human genome DNA (Clontech) as template for PCR [using DNA polymerase (LA Taq DNA polymerase; Takara Shuzo Co., Ltd.), and at 98° C. (5 minutes) and subsequently 35 times of a cycle of 96° C. […] After culturing for 48 hours, the luminescence of luciferase was assayed in the same manner as in Example 2. […]
smiles,measurement,setting,value
"CCc1ccc(CCOc2ccc(CC3SC(=O)NC3=O)cc2)nc1 (single isomer, unassigned; (+)) [pioglitazone, (+)-5-[4-[2-(5-ethyl-2-pyridinyl)ethoxy]benzyl]-2,4-thiazolidinedione]",expression level of p68 RNA helicase compared with the culture medium without pioglitazone addition,[1],about 1.7 fold
same,promoter activity of p68 RNA helicase gene (luciferase activity),[2],activated

# Reference: patent US20050244829A1, “Method of screening insulin resistance inproving drug” (priority 2002, published 2005)
